From US7998989B2, “2-Imino-1,3-thiazoline-based compounds and T-type calcium channel inhibitors containing the same” (Korea Institute of Science and Technology, priority 2007, dated 2011)

melting point [°C]	Compound
199.5 to 200.5	Cc1ccc(NC(=O)CC2CSC(=NC3CC3)N2C)c(F)c1.Cl (stereo not drawn)
191.2	CN1C(=NC2CCCCCC2)SCC1C(=O)Nc1cc(Cl)cc(Cl)c1 (stereo not drawn) [KHG24674, (2-cycloheptylimino-3-methyl-1,3-thiazolidine-4-yl)-N-(3,5-dichlorophenyl)-carboxamide]
160.5 to 162	CN1C(=NC2CCCC2)SCC1CC(=O)NCc1ccc(F)cc1.Cl (stereo not drawn)
262.2	Br.CN1C(=NC2CCCCCC2)SCC1C(=O)Nc1cc(Cl)ccc1F (stereo not drawn)
241.2	CN1C(=NC2CCCCCC2)SCC1C(=O)Nc1cc(Cl)ccc1F (stereo not drawn) [KHG24686, (2-cycloheptylimino-3-methyl-1,3-thiazolidine-4-yl)-N-(5-chloro-2-fluorophenyl)-carboxamide]
240 to 242.5	CN1C(=NC2CCCC2)SCC1CC(=O)Nc1ccc(F)cc1F.Cl (stereo not drawn)
265.3	CN1C(=NC2CCCCCC2)SCC1C(=O)Nc1ccc(F)cc1.Cl (stereo not drawn)
231.5 to 233	CN1C(=NC2CCCC2)SCC1CC(=O)Nc1ccccc1.Cl (stereo not drawn)
278.6	CN1C(=NC2CCCCCC2)SCC1C(=O)Nc1ccc(Oc2ccccc2)cc1 (stereo not drawn) [KHG24682, (2-cycloheptylimino-3-methyl-1,3-thiazolidine-4-yl)-N-(4-phenoxyphenyl)-carboxamide]
185 to 186.5	Cc1ccc(NC(=O)CC2CSC(=NC3CCCC3)N2C)c(Cl)c1.Cl (stereo not drawn)
237.5 to 238	CN1C(=NC2CC2)SCC1CC(=O)Nc1cc([N+](=O)[O-])ccc1F.Cl (stereo not drawn)
264.8	Br.CN1C(=NC2CCCCCC2)SCC1C(=O)Nc1cc([N+](=O)[O-])ccc1F (stereo not drawn)
218.3	CCN1C(=NC2CCCCC2)SCC1CC(=O)Nc1ccc(Cl)cc1.Cl (stereo not drawn)
151.1	CN1C(=NC2CCCCCC2)SCC1C(=O)Nc1cc([N+](=O)[O-])ccc1F (stereo not drawn) [KHG24661, (2-cycloheptylimino-3-methyl-1,3-thiazolidine-4-yl)-N-(2-fluoro-5-nitrophenyl)-carboxamide]
166.4	Cl.O=C(CC1CSC(=NC2CCCCC2)N1Cc1ccccc1)Nc1cc([N+](=O)[O-])ccc1F (stereo not drawn)
240.8	Br.CCCCc1ccc(NC(=O)C2CSC(=NC3CCCCCC3)N2C)cc1 (stereo not drawn)
211.4	CN1C(=NC2CCCCCC2)SCC1C(=O)Nc1ccccc1.Cl (stereo not drawn)
215 to 217	CC1SC(=NC2CCCCC2)N(C)C1CC(=O)Nc1ccc([N+](=O)[O-])cc1.Cl (stereo not drawn)
278.9	Br.Cc1ccc(NC(=O)C2CSC(=NC3CCCCCC3)N2C)cc1 (stereo not drawn)
274.1	Br.CN1C(=NC2CCCCCC2)SCC1C(=O)Nc1cc(C(F)(F)F)cc(C(F)(F)F)c1 (stereo not drawn)
170.8	CN1C(=NC2CCCCCC2)SCC1C(=O)Nc1ccc(C(C)(C)C)cc1 (stereo not drawn) [KHG24684, (2-cycloheptylimino-3-methyl-1,3-thiazolidine-4-yl)-N-(4-t-butylphenyl)-carboxamide]
245 to 246	CN1C(=NC2CC2)SCC1CC(=O)Nc1ccc(F)cc1F.Cl (stereo not drawn)
282.2	Br.CC(C)c1ccc(NC(=O)C2CSC(=NC3CCCCCC3)N2C)cc1 (stereo not drawn)
149.5	Br.CN1C(=NC2CCCCCC2)SCC1C(=O)Nc1ccc(Oc2ccccc2)cc1 (stereo not drawn)
146 to 147	CN1C(=NC2CCCCC2)SCC1CC(=O)Nc1ccc2c(c1)OCO2.Cl (stereo not drawn) (hydrate or solvate) [KHG24086, (2-cyclohexylimino-3-methyl-1,3-thiazolidine-4-yl)-N-(3,4-methylenedioxyphenyl)-acetamide hydrochloride]
278 to 279	Br.CCc1ccc(NC(=O)C2CSC(=NC3CCCCCC3)N2C)cc1 (stereo not drawn)
198.4	CN1C(=NC2CCCCCC2)SCC1C(=O)Nc1ccccc1Cl (stereo not drawn) [KHG24624, (2-cycloheptylimino-3-methyl-1,3-thiazolidine-4-yl)-N-(2-chlorophenyl)-carboxamide]
158	Cl.O=C(CC1CSC(=NC2CCCCC2)N1C1CCCCC1)Nc1cc(Cl)ccc1F (stereo not drawn)
275.2	Br.CN1C(=NC2CCCCCC2)SCC1C(=O)Nc1cc(Cl)cc(Cl)c1 (stereo not drawn)

Second part, the molecule before the results:

Compound	melting point [°C]
Cc1ccc(NC(=O)CC2C(C)SC(=NC3CCCC3)N2C)cc1.Cl (stereo not drawn)	228 to 229
CC(C)c1ccc(NC(=O)CC2CSC(=NC3CC3)N2C)cc1.Cl (stereo not drawn)	238 to 238.5
CC(C)(C)c1ccc(NC(=O)CC2CSC(=NC3CCCCC3)N2C2CCCCC2)cc1.Cl (stereo not drawn)	244
COc1ccc(CNC(=O)CC2CSC(=NC3CCCC3)N2C)cc1.Cl (stereo not drawn)	172 to 173.5
Cc1ccc(NC(=O)CC2CSC(=NC3CCCCC3)N2C2CC2)cc1.Cl (stereo not drawn)	216.4
CN1C(=NC2CC2)SCC1CC(=O)Nc1ccc(F)cc1.Cl (stereo not drawn)	252 to 253.5
CCCCN1C(=NC23CC4CC(CC(C4)C2)C3)SCC1CC(=O)Nc1cc(Cl)cc(Cl)c1.Cl (stereo not drawn)	164
CCCCc1ccc(NC(=O)CC2CSC(=NC3C4CC5CC(C4)CC3C5)N2C)cc1.Cl (stereo not drawn)	127
CN1C(=NC2CC2)SCC1CC(=O)Nc1ccc(CC#N)cc1.Cl (stereo not drawn)	245 to 245.5
COc1ccc(CNC(=O)CC2CSC(=NC3CCCCC3)N2C)cc1.Cl (stereo not drawn)	193 to 195
Cl.O=C(CC1CSC(=NC2CCCCC2)N1Cc1ccccc1)Nc1ccc(Oc2ccccc2)cc1 (stereo not drawn)	209.5
COc1ccc(NC(=O)CC2C(C)SC(=NC3CCCCC3)N2C)cc1 (stereo not drawn) [KHG24481, (2-cyclohexylimino-3,5-dimethyl-1,3-thiazolidine-4-yl)-N-(4-methoxyphenyl)-acetamide]	258 to 260
CN1C(=NC2CC2)SCC1CC(=O)Nc1cc(Cl)cc(Cl)c1.Cl (stereo not drawn)	260.5 to 261
CCCCc1ccc(NC(=O)CC2CSC(=NC34CC5CC(CC(C5)C3)C4)N2C(C)C)cc1.Cl (stereo not drawn)	178
CN1C(=NC2CC2)SCC1CC(=O)Nc1ccc(Cl)cc1.Cl (stereo not drawn)	241.5 to 242.5
Cl.O=C(CC1CSC(=NC2CCCCC2)N1C1CCCCC1)Nc1cc(Cl)cc(Cl)c1 (stereo not drawn)	202
CN1C(=NCC2CCCCC2)SCC1CC(=O)Nc1ccc(Oc2ccccc2)cc1.Cl (stereo not drawn)	250.8
CN1C(=NC2CCCC2)SCC1CC(=O)Nc1ccc(CC#N)cc1.Cl (stereo not drawn)	199.5 to 200
CN1C(=NC2CC2)SCC1CC(=O)NCc1ccc(F)cc1.Cl (stereo not drawn)	200.5 to 202.5
CC1SC(=NC2CCCCC2)N(C)C1CC(=O)Nc1ccccc1.Cl (stereo not drawn)	231 to 234
CC1SC(=NC2CCCC2)N(C)C1CC(=O)Nc1ccccc1F.Cl (stereo not drawn)	153
CN1C(=NC2CC2)SCC1CC(=O)Nc1ccccc1.Cl (stereo not drawn)	240.5 to 241
CCCCN1C(=NC23CC4CC(CC(C4)C2)C3)SCC1CC(=O)Nc1ccc(Oc2ccccc2)cc1.Cl (stereo not drawn)	127
Cl.O=C(CC1CSC(=NC2CCCCC2)N1C1CCCCC1)NCc1ccc(Cl)cc1 (stereo not drawn)	152
CN1C(=NC2CC2)SCC1CC(=O)NCc1ccc(Cl)cc1.Cl (stereo not drawn)	225.5 to 227
CC(C)c1ccc(NC(=O)CC2CSC(=NC3C4CC5CC(C4)CC3C5)N2C)cc1.Cl (stereo not drawn)	245
COc1ccc(NC(=O)CC2C(C)SC(=NC3CCCCCC3)N2C)cc1 (stereo not drawn) [KHG24485, (2-cycloheptylimino-3,5-dimethyl-1,3-thiazolidine-4-yl)-N-(4-methoxyphenyl)-acetamide]	250 to 251
Cl.O=C(CC1CSC(=NC2CCCCC2)N1C1CCCCC1)Nc1ccc(F)cc1 (stereo not drawn)	256
